In ChEMBL document CHEMBL5727751, “Use of aza-tryptanthrin derivatives as inhibitors of IDO1 and/or TDO” (2020):

Target: Indoleamine 2,3-dioxygenase 1 (Homo sapiens, UniProt P14902)
Assay: Indoleamine-2,3-Dioxygenase 1 Inhibitory Activity: Experimental method: IDO-1 can oxidatively cleave the indole ring of tryptophan to form N-formylkynurenine. Referring to the method in the literature (Eddy W. Yue, et al. J. Med. Chem. 2009, 52, 7364-7367), 20 nM IDO-1, 2 mM D-tryptophan, 20 mM ascorbic acid, 3.5M methyl blue and 0.2 mg/mL antioxidant enzyme were sequentially added to 50 mM potassium phosphate buffer at room temperature. Due to the formation of N-formylkynurenine, the reaction rate was recorded by the increasing absorbance of the solution at 321 nm. IC50 values were calculated using Prism GraphPad software.

Chain of Indoleamine 2,3-dioxygenase 1 (P14902 whole entry): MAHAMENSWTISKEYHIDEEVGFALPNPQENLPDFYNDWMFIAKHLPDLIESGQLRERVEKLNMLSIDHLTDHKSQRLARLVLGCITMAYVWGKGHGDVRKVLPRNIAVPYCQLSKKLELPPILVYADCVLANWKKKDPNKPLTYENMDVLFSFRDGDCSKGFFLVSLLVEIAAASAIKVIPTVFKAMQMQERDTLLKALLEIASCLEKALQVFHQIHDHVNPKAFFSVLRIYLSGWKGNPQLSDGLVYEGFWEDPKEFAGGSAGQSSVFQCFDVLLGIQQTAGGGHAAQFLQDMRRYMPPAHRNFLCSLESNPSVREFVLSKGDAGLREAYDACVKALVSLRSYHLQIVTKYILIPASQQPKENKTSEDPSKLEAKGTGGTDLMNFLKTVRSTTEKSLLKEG

IC50 [nM]	Structure (SMILES)
1 to 100	O=C1c2cc(OC(F)(F)F)ccc2-n2c1nc1ncccc1c2=O
1 to 100	O=C1c2cnccc2-n2c1nc1ncccc1c2=O
1 to 100	O=C1c2cc(Cl)ccc2-n2c1nc1ncccc1c2=O
1 to 100	CN(C)CCON=C1c2cc([N+](=O)[O-])ccc2-n2c1nc1ncccc1c2=O
1 to 100	O=C1c2cc(F)ccc2-n2c1nc1ncccc1c2=O
1 to 100	CN(C)C(=S)NN=C1c2cc([N+](=O)[O-])ccc2-n2c1nc1ncccc1c2=O
1 to 100	NC(=S)NN=C1c2cc([N+](=O)[O-])ccc2-n2c1nc1ncccc1c2=O

Structure (SMILES)	IC50 [nM]
N=C(N)NN=C1c2cc([N+](=O)[O-])ccc2-n2c1nc1ncccc1c2=O	1 to 100
O=C1c2cc([N+](=O)[O-])ccc2-n2c1nc1ncccc1c2=O	1 to 100
